Source: patent EP0051819A2, “Tetra-substituted benzene derivatives, their preparation and pharmaceutical preparations containing them” (F. HOFFMANN-LA ROCHE & CO. Aktiengesellschaft, priority 1980, dated 1982)
Converted amounts (≈) assume the structure as drawn. Like-named read-outs stand apart in the source and are kept apart here.

Assays:
[1] = Cytotoxicity in HeLa cells, observed microscopically in the antiviral test; format: cell-based; conditions: human, hela cells
Method: (§1) Eine Suspension von HeLa-Zellen (6 x 10^4) wurde mit Rhinovirus HGP (3 x 10^3 Plaque-bildende Einheiten, PFU) gemischt und auf eine Mikrotestplatte gebracht, die die zu testenden Verbindungen in zunehmender Verdünnung enthielten. Die Zellen wurden dann in Eagle's Minimalnährlösung, die 2% Kalbsserum, 1% Tryptosephosphatbrühe, 100 ug/ml Streptomycin und 20 Einheiten/ml Penicillin G enthielt, kultiviert. Der virale zytopathogenische Effekt (C.P.E.) und die Cytotoxizität wurden mikroskopisch nach 2 Tagen Kultivierung bei 33°C beobachtet. Die antivirale Aktivität (IC50) der Testverbindungen ist diejenige Konzentration,.bei der C.P.E. um 50% gegenüber der Kontrollkultur gehemmt war. Die Cytotoxizität ist als Minimalkonzentration angegeben, bei der toxische Symptome beobachtet wurden.(cytotoxische Dosis).

[2] = system: Rhinovirus HGP; assay: Antiviral activity: inhibition of viral cytopathogenic effect (C.P.E.) in HeLa cell culture; format: cell-based; conditions: for IC50: Enterovirus, HeLa, 48 h; for antivirale Aktivität: qualitative statement in the description, no virus named
Method: as §1

[3] = minimal concentration at which toxic symptoms were observed (cytotoxische Dosis), 2 days at 33°C, read-out: Cytotoxizität
[4] = concentration inhibiting C.P.E. by 50% versus control culture, HeLa cells, 2 days at 33°C, read-out: IC50

SMILES	IC50 [2, 4] [µg/mL]	MCC at 48 h [1, 3] [µg/mL]	MCC at 48 h [1] [µg/mL]	antivirale Aktivität [2]	IC50 [2] [µg/mL]
CCOC(=O)Oc1cc(OC)cc(OC)c1C(=O)NCc1ccc(OC)cc1	0.1 (≈ 0.257 µM)	> 8			
CCOc1cc(OC)cc(O)c1C(=O)CCc1ccc(OC)cc1 [1-(2-Ethoxy-6-hydroxy-4--methoxyphenyl)-3-(4-methoxy-phenyl)-1-propanon]	0.01 to 0.03 (≈ 0.0303 to 0.0908 µM)	0.9			
COc1cc(O)c(C(=O)CCc2ccc(C)cc2)c(OC)c1 [1-(2-Hydroxy-4,6-dimethoxy-phenyl)-3-(4-methylphenyl)-1--propanon]	0.01 to 0.03 (≈ 0.0333 to 0.0999 µM)	> 8			
COc1cc(O)c(C(=O)CCc2ccc3c(c2)OCO3)c(OC)c1 [1-(2-Hydroxy-4,6-dimethoxy-phenyl)-3-[3,4-(methylendioxy)-phenyl]-1-propanon]	0.03 to 0.1 (≈ 0.0908 to 0.303 µM)	> 8			
COc1cc(O)c(C(=O)CCc2ccc(SC)cc2)c(OC)c1 [1-(2-Hydroxy-4,6-dimethoxy-phenyl)-3-[4-(methylthio)-phenyl]-1-propanon]	0.01 to 0.03 (≈ 0.0301 to 0.0902 µM)	8			
COc1ccc(C(=O)CC(=O)c2c(O)cc(OC)cc2OC)cc1 [1-(2-Hydroxy-4,6-dimethoxyphenyl)-3-(4-methoxyphenyl)-1,3-propandion]	0.01 to 0.03 (≈ 0.0303 to 0.0908 µM)	8			
COc1cc(O)c(C(=O)CCc2ccc(C)o2)c(OC)c1 [1-(2-Hydroxy-4,6-dimethoxyphenyl)-3-(5-methyl-2-furyl)-l-propanon]	0.9 (≈ 3.1 µM)	> 8			
COc1cc(O)c(C(=O)CCC2CCC(C)O2)c(OC)c1 (stereo not drawn) [1-(2-Hydroxy-4,6-dimethoxyphenyl)-3-(tetrahydro-5-methyl-2-furyl)-1-propanon]	0.9 (≈ 3.06 µM)	> 8			
COc1ccc(CCC(=O)c2c(O)cc(OC(C)C)cc2OC)cc1 [1-(2-Hydroxy-4-isopropoxy-6-methoxyphenyl)-3-(4-methoxyphenyl)-1-propanon]	0.03 to 0.1 (≈ 0.0871 to 0.29 µM)	8			
CCCOc1cc(O)c(C(=O)CCc2ccc(OC)cc2)c(OC)c1 [1-(2-Hydroxy-6-methoxy-4-propoxyphenyl)-3-(4-methoxyphenyl)-1-propanon]	0.004 to 0.01 (≈ 0.0116 to 0.029 µM)	2.7			
COc1ccc(CCC(=NO)c2c(O)cc(OC)cc2OC)cc1 [1-(2-Hydroxy--4,6-dimethoxyphenyl)-3-(4-methoxyphenyl)-1-propanon-oxim]		> 10			
CCOc1cc(O)c(C(=S)CCc2ccc(OC)cc2)c(OC)c1 [1-(4-Ethoxy-2-hydroxy-6-methoxyphenyl)-3-(4-methoxyphenyl)-1-propanthion]	0.002 (≈ 0.00577 µM)		2.7	besonders starke antivirale Aktivität	
COc1ccc(CCC(=O)c2c(O)cc(SC)cc2OC)cc1 [1-[2-Hydroxy-6-methoxy-4-(methylthio)-phenyl]-3-(4-methoxyphenyl)-1-propanon]	0.1 (≈ 0.301 µM)	1			
CCOc1cc(OC)c(C(=O)NCc2ccc(OC)cc2)c(OP(=O)(O)O)c1 [2--[(p-Anisylamino)carbonyl]-5-ethoxy-3-methoxyphenyl-dihydrogenphosphat]		> 8		besonders starke antivirale Aktivität	0.01 to 0.03 (≈ 0.0243 to 0.0729 µM)
COc1cc(O)c(C(=O)NCc2cccs2)c(OC)c1 [2-Hydroxy-4,6-dimethoxy-N-(2--thenyl)benzamid]	0.03 (≈ 0.102 µM)	8			
COc1cc(O)c(C(=O)NCc2ccc[nH]2)c(OC)c1 [2-Hydroxy-4,6-dimethoxy-N-(2-pyrrolylmethyl)benzamid]	2.7 (≈ 9.77 µM)	> 8			
COc1ccc(NC(=O)c2c(O)cc(OC)cc2OC)cc1 [2-Hydroxy-4,6-dimethoxy-N-(4--methoxyphenyl)benzamid]	0.03 to 0.1 (≈ 0.0989 to 0.33 µM)	> 10			
COc1cc(O)c(C(=O)NCc2ccc3c(c2)OCO3)c(OC)c1 [2-Hydroxy-4,6-dimethoxy-N-(m,p--methylenedioxybenzyl)benzamid]	0.003 to 0.01 (≈ 0.00905 to 0.0302 µM)	> 8			
COc1cccc(CNC(=O)c2c(O)cc(OC)cc2OC)c1 [2-Hydroxy-4,6-dimethoxy-N-(m--methoxybenzyl)benzamid]	0.002 (≈ 0.0063 µM)	> 8			
COc1cc(O)c(C(=O)NCc2ccc(C)cc2)c(OC)c1 [2-Hydroxy-4,6-dimethoxy-N-(p--methylbenzyl)benzamid]	0.01 to 0.03 (≈ 0.0332 to 0.0996 µM)	8			
COc1ccc(CNC(=O)c2c(O)cc(OC)cc2OC)cc1 [2-Hydroxy-4,6-dimethoxy-N-(p-methoxybenzyl)benzamid]	0.002 (≈ 0.0063 µM)	8			
COc1cc(O)c(C(=O)NCc2ccc(OC)c(OC)c2)c(OC)c1 [2-Hydroxy-4,6-dimethoxy-N--(m,p-dimethoxybenzyl)benzamid]	0.3 (≈ 0.864 µM)	8			
COc1cc(O)c(C(=O)NCC2CCCS2)c(OC)c1 (stereo not drawn) [2-Hydroxy-4,6-dimethoxy-N--(tetrahydro-2-thenyl)benzamid]	0.004 to 0.01 (≈ 0.0135 to 0.0336 µM)	8			
CNC(=O)c1c(O)cc(OC)cc1OC [2-Hydroxy-4,6-dimethoxy-N--methylbenzamid]	0.9 (≈ 4.26 µM)	> 8			
COc1cc(O)c(C(=O)NCc2ccncc2)c(OC)c1 [2-Hydroxy-4,6-dimethoxy-N-[(4-pyridyl)methyl]benzamid]	0.9 (≈ 3.12 µM)	8			
COc1ccc(CNC(=O)c2c(OC)cc(OC)cc2OP(=O)(O)O)cc1 [2-[(p-Anisylamino)carbonyl]-3,5-dimethoxyphenyl-dihydrogenphosphat]		> 8			0.006 to 0.01 (≈ 0.0151 to 0.0252 µM)

Further lines, with some results ahead:

IC50 [2, 4] [µg/mL]	SMILES	MCC at 48 h [1, 3] [µg/mL]	MCC at 48 h [1] [µg/mL]	antivirale Aktivität [2]	IC50 [2] [µg/mL]
0.002 (≈ 0.006 µM)	COc1cc(O)c(C(=O)NCc2ccc(SC)cc2)c(OC)c1 [2-Hydroxy-4,6-dimethoxy-N-[p--(methylthio)benzyl]benzamid]	> 8		besonders starke antivirale Aktivität	
0.001 to 0.002 (≈ 0.00269 to 0.00538 µM)	COc1ccc(CNC(=O)c2c(O)cc(OCC=C(C)C)cc2OC)cc1 [2-Hydroxy-6-methoxy-4-(3-methyl-2-butenyloxy)-N-(p-methoxybenzyl)benzamid]	> 8		besonders starke antivirale Aktivität	
0.001 to 0.003 (≈ 0.0029 to 0.00869 µM)	CCCOc1cc(O)c(C(=O)NCc2ccc(OC)cc2)c(OC)c1 [2-Hydroxy-6-methoxy-4-propoxy-N-(p-methoxybenzyl)benzamid]	> 20		besonders starke antivirale Aktivität	
0.1 to 0.3 (≈ 0.3 to 0.9 µM)	COc1cc(O)c(C(=O)NCc2ccc(OC)c(O)c2)c(OC)c1 [2-Hydroxy-N-(m-hydroxy-p-methoxy-benzyl)-4,6-dimethoxybenzamid]	2.7			
0.3 (≈ 0.989 µM)	COc1cc(O)c(C(=O)NCc2ccc(O)cc2)c(OC)c1 [2-Hydroxy-N-(p-hydroxybenzyl)--4,6-dimethoxybenzamid]	> 8			
2.7 (≈ 5.63 µM)	COc1ccc(CNC(=O)c2c(OC)cc(OC)cc2O[C@@H]2O[C@H](CO)[C@@H](O)[C@H](O)[C@H]2O)cc1 [2-[(p-Anisyl-amino)carbonyl]-3,5-dimethoxyphenyl-ß-D-glucopyranosid]	> 10			
0.3 (≈ 0.803 µM)	CCOc1cc(OC)c(C(=O)NCc2ccc(OC)cc2)c(OC(C)=O)c1 [2-[(p-Anisyl-amino)carbonyl]-5-ethoxy-3-methoxypheny]acetat]	> 8			
0.03 (≈ 0.0712 µM)	COc1ccc(CNC(=O)c2c(OC)cc(OC)cc2OC(=O)c2ccccc2)cc1 [2-[(p-Anisylamino)carbonyl]-3,5-dimethoxyphenyl-benzoat]	> 8			
0.3 to 0.9 (≈ 0.514 to 1.54 µM)	CCCCCCCCCCCCCCCCCC(=O)Oc1cc(OC)cc(OC)c1C(=O)NCc1ccc(OC)cc1 [2-[(p-Anisylamino)carbonyl]-3,5-dimethoxyphenyl-octadecanoat]	> 8			
2.7 (≈ 4.17 µM)	COc1ccc(CNC(=O)c2c(OC)cc(OC)cc2O[C@@H]2O[C@H](COC(C)=O)[C@@H](OC(C)=O)[C@H](OC(C)=O)[C@H]2OC(C)=O)cc1 [2-[(p-Anisylamino)carbonyl]-3,5-dimethoxyphenyl-tetra-O-acetyl-ß-D-glucopyranosid]	> 10			
0.002 (≈ 0.00447 µM)	C=CCOc1ccc(CNC(=O)c2c(OC)cc(OC)cc2OC(=O)c2ccccc2)cc1 [2-{[[p-(Allyloxy)benzyl]amino]carbonyl}-3,5-dimethoxyphenyl-benzoat]	2.7		besonders starke antivirale Aktivität	
0.3 (≈ 0.492 µM)	C=CCOc1ccc(CNC(=O)c2c(OC)cc(OC)cc2OC(=O)CCCCCCCCCCCCCCCCC)cc1 [2-{[[p-(Allyloxy)benzyl]amino]carbonyl}-3,5-dimethoxyphenyl-octadecanoat]	> 8			
0.1 (≈ 0.312 µM)	COc1cc(O)c(C(=O)CCc2ccc(Cl)cc2)c(OC)c1 [3-(4-Chlorophenyl)-1-(2-hydroxy--4,6-dimethoxyphenyl)-1--propanon]	10			
0.002 (≈ 0.00582 µM)	C=CCOc1cc(O)c(C(=O)NCc2ccc(OC)cc2)c(OC)c1 [4-(Allyloxy)-2-hydroxy-6-methoxy-N-(p-methoxybenzyl)benzamid]	> 8		besonders starke antivirale Aktivität	
0.01 (≈ 0.0288 µM)	CCOc1cc(O)c(C(=S)NCc2ccc(OC)cc2)c(OC)c1 [4-Ethoxy-2-hydroxy-6-methoxy-N-(p-methoxybenzyl)-thiobenzamid]	> 8			
0.001 (≈ 0.00269 µM)	CCOc1cc(OC)c(C(=O)CCc2ccc(OC)cc2)c(OC(C)=O)c1 [5-Ethoxy-3-methoxy-2-[3-(4-methoxyphenyl)-propionyl]phenyl-acetat]	> 8			
